According to patent US10393748B2, “Method for predicting efficacy of c-Met inhibitor” (Samsung Electronics Co., Ltd., priority 2014, dated 2019):

Legend:
Format in all cases: cell-based, human
[1] = system: Hs746T; test: Cell proliferation, Cell-Titer Glo (CTG) assay, Hs746T; conditions: inhibitor concentration of 10 nM or more, 72 hours
Method: (§1) The 4 cell lines were seeded on a 96 well plate at the same amount (1×10^4 cells/well) and cultured for 24 hours (media: RPMI (Gibco, Invitrogen), culture conditions: 37° C., 5% CO2). The cultured cells were treated with representative c-Met inhibitor, crizotinib (Selleck chemical) and PHA665752((R,Z)-5-(2,6-dichlorobenzylsulfonyl)-3-((3,5-dimethyl-4-(2-(pyrrolidin-1-ylmethyl)pyrrolidine-1-carbonyl)-1H-pyrrol-2-yl)methylene)indolin-2-one), respectively. For comparison, human control IgG (chrompure human IgG (009-000-003, JACKSON IMMUNORESEARCH LABS INC.)) as a control and anti-c-Met antibody L3-1Y/IgG2 (Reference Example) were used respectively. Each of the inhibitors (or antibody) was treated at 10-fold serial diluted concentrations from 1000 nM to 0.01 nM. 72 hours after the treatment, the level of IL-8 in cell culture of each treatment group was assayed by Cytometric Bead Array (CBA) method using BD Cytometric Bead Array kit (see Example 1.1.2). In addition, in order to verify the anticancer efficacy of the c-Met inhibitors, the cell proliferation (%) was measured at 72 hours after c-Met inhibitor treatment through Cell-Titer Glo (CTG) assay.

[2] = system: Lovo; test: Cell proliferation, Cell-Titer Glo (CTG) assay, Lovo; conditions: 0.01 to 1000 nM, 72 hours
Method: as §1

[3] = system: EBC-1; test: Cell proliferation, Cell-Titer Glo (CTG) assay, EBC-1; conditions: inhibitor concentration of 10 nM or more, 72 hours
Method: as §1

[4] = system: HT29; test: Cell proliferation, Cell-Titer Glo (CTG) assay, HT29; conditions: 0.01 to 1000 nM, 72 hours
Method: as §1

SMILES | cell proliferation (%) [1] | cell proliferation (%) [2] | cell proliferation (%) [3] | cell proliferation (%) [4]
Cc1[nH]c(/C=C2\C(=O)Nc3ccc(S(=O)(=O)Cc4c(Cl)cccc4Cl)cc32)c(C)c1C(=O)N1CCC[C@@H]1CN1CCCC1 [PHA665752, (R,Z)-5-(2,6-dichlorobenzylsulfonyl)-3-((3,5-dimethyl-4-(2-(pyrrolidin-1-ylmethyl)pyrrolidine-1-carbonyl)-1H-pyrrol-2-yl)methylene)indolin-2-one] | significantly inhibited | no significant decrease | significantly inhibited | no significant decrease
C[C@@H](Oc1cc(-c2cnn(C3CCNCC3)c2)cnc1N)c1c(Cl)ccc(F)c1Cl [crizotinib, 3-((R)-1-(2,6-dichloro-3-fluorophenyl)ethoxy)-5-(1-(piperidin-4-yl)-1H-pyrazol-4-yl)pyridin-2-amine] | significantly inhibited | no significant decrease | significantly inhibited | no significant decrease
